According to paper PMC8151276, “An Integrated Approach toward NanoBRET Tracers for Analysis of GPCR Ligand Engagement” (Molecules, 2021):

Columns and labels:
Assay type in all cases: binding
ADORA1 = target: T1, ADORA1 (Homo sapiens, UniProt P30542); assay: NanoBRET screen HiBiT-ADORA1 in HEK293
T1 construct: purchased Promega (in-house HiBiT-GPCR construct library, NanoBRET)
T1 sequence (P30542 1-326): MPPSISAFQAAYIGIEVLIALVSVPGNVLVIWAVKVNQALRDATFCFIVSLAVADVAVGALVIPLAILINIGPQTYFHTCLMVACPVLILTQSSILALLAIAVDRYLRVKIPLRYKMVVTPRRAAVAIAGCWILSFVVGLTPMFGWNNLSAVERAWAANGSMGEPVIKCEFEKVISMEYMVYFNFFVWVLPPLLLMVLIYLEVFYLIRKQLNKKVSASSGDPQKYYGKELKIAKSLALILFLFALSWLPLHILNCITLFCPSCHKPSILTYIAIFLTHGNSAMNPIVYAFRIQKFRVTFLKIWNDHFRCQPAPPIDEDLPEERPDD
Procedure: (§1) Each tracer candidate was screened across the entire library of HiBiT-GPCR constructs using NanoBRET as the detection modality. As depicted in Figure 4A, the specificity of interactions was evaluated through decrease in BRET due to competitive displacement of a bound tracer by excess parental compound. Each tracer was analyzed for binding to each HiBiT-GPCR fusion in the absence and in the presence of competing parental compound. Briefly, HEK293 cells were transfected with HiBiT-GPCR constructs diluted into promoterless DNA to reduce expression and maximize translocation to the cell surface. Each tracer candidate was then screened at concentrations of 1 μM and 0.1 μM across cells expressing these fusions. Cells were treated for 1.5 h with tracer either alone or in the presence of 20 μM competing parental compound (i.e., control). BRET was measured upon addition of purified LgBiT and subsequent complementation with HiBiT genetically fused to a GPCR. The specificity of interactions was assessed through a decrease in BRET signal due to competitive displacement of the bound tracer. To further gauge the robustness of these interactions, the fold response over the control (i.e., BRETtracer/BRETcontrol) was calculated. We chose a 1.5-fold response, which translates to ≥7-fold signal over noise as the minimal threshold required to score an interaction as positive. […]. Below we highlight the screening results obtained for our exemplary fluorescent tracers based on Clozapine, Amitriptyline and AZD1283.
(§2) HiBiT-GPCR DNA constructs were diluted in 10 mM Tris pH 8 to a final concentration of 0.01 μg/μL, arrayed in 96-well plates and stored at −20 °C. For transfection, HEK293 cells were suspended in Opti-MEM (without phenol red) supplemented with 2% fetal bovine serum (Seradigm) and 100 units/mL penicillin–streptomycin (Gibco) at a final concentration of 220,000 cells/mL and dispensed into white 96-well plates at 90 μL/well. Subsequent transfections and screens were carried using an Agilent Bravo Automated Liquid Handling Platform. First, the 96-well HiBiT DNA arrays were diluted 25-fold in Opti-MEM (without serum or phenol red) to a final concentration of 0.0004 μg/μL and 20 μL of the diluted DNAs were transferred into new 96-well plates. Next, promoterless carrier DNA (1 μg/μL) was diluted 25-fold (0.04 μg/μL) and then dispensed into the diluted arrays at 20 μL/well. Following brief mixing, Viafect transfection reagent (Promega) diluted 16-fold into Opti-MEM was dispensed into the plates at 40 μL/well. After mixing by pipetting, plates were incubated for 10 min on the pipetting station deck. The DNA-transfection reagent complexes were then added to plates containing cells. To facilitate the screen, 10 μL of DNA-transfection reagent complexes were added in duplicates to the top 4 and bottom 4 rows, resulting in two identical 48-well arrays per plate. Plates with transfected cells were incubated for 18–20 h at 37 °C/5% CO2. A screen of each tracer across the entire library using two different concentrations requires duplicate plates of transfected cells. Depending on the number of tracers being screened, transfections can be scaled up using the same ratios. The next day, for each tracer, four 20× screening solutions in tracer dilution buffer (Promega) were prepared: two duplicates at final concentration of 20 μM and two duplicates at a final concentration of 2 μM. A competing unmodified compound was added to one of each duplicate at a final concentration of 400 μM. The four resulting solutions were diluted 4-fold in Opti-MEM without serum or phenol red to generate 5× solutions (5 µM and 0.5 µM tracer +/− 100 μM competing compound). To screen the library, a BioTek MultiFlo FX liquid dispenser was used to dispense 22.5 µL of tracer solution to the top 4 rows and 22.5 µL tracer + competing compound solution to the 4 bottom rows. Plates were briefly mixed on an orbital shaker and incubated for 1.5 h at room temperature. […]

CXCR2 = target: T2, CXCR2 (Homo sapiens, UniProt P25025); assay: NanoBRET screen HiBiT-CXCR2 in HEK293
T2 construct: purchased Promega (in-house HiBiT-GPCR construct library, NanoBRET)
T2 sequence (P25025 1-360): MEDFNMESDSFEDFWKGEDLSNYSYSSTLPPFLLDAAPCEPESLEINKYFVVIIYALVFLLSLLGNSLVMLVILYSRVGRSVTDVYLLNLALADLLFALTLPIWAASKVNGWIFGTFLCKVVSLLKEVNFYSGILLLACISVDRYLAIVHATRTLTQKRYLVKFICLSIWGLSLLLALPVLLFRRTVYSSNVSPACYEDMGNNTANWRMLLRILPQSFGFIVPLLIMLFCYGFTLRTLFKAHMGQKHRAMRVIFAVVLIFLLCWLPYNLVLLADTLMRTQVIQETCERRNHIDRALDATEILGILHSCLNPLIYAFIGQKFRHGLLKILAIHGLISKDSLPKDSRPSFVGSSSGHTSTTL
Procedure: as §1, §2

CXCR5 = target: T3, CXCR5 (Homo sapiens, UniProt P32302); assay: NanoBRET screen HiBiT-CXCR5 in HEK293
T3 construct: purchased Promega (in-house HiBiT-GPCR construct library, NanoBRET)
T3 sequence (P32302 1-372): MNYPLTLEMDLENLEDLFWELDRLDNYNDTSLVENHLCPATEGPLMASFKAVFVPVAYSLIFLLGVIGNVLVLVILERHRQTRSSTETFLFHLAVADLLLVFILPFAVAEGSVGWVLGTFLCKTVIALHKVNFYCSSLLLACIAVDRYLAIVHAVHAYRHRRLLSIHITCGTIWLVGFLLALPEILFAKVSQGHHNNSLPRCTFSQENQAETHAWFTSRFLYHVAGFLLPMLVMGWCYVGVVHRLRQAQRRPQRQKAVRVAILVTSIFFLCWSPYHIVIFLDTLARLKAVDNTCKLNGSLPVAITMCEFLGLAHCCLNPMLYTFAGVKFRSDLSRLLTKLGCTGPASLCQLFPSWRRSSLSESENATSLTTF
Procedure: as §1, §2

GRM1 = target: T4, GRM1 (Homo sapiens, UniProt Q13255); assay: NanoBRET screen HiBiT-GRM1 in HEK293
T4 construct: purchased Promega (in-house HiBiT-GPCR construct library, NanoBRET)
Procedure: as §1, §2

PTGIR = target: T5, PTGIR (Homo sapiens, UniProt P43119); assay: NanoBRET screen HiBiT-PTGIR in HEK293
T5 construct: purchased Promega (in-house HiBiT-GPCR construct library, NanoBRET)
Procedure: as §1, §2

T5 sequence (P43119 whole entry): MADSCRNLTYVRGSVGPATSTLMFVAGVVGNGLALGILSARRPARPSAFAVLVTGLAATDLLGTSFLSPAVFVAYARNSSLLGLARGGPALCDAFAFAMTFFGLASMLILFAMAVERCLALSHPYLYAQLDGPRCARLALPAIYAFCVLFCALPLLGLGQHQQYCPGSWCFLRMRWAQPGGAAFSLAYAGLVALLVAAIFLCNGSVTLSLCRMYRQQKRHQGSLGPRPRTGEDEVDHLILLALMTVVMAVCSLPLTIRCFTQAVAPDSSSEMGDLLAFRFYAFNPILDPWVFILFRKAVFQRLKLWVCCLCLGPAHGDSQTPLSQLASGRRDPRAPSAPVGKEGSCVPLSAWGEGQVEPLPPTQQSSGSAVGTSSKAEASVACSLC
T4 sequence (Q13255 19-1194): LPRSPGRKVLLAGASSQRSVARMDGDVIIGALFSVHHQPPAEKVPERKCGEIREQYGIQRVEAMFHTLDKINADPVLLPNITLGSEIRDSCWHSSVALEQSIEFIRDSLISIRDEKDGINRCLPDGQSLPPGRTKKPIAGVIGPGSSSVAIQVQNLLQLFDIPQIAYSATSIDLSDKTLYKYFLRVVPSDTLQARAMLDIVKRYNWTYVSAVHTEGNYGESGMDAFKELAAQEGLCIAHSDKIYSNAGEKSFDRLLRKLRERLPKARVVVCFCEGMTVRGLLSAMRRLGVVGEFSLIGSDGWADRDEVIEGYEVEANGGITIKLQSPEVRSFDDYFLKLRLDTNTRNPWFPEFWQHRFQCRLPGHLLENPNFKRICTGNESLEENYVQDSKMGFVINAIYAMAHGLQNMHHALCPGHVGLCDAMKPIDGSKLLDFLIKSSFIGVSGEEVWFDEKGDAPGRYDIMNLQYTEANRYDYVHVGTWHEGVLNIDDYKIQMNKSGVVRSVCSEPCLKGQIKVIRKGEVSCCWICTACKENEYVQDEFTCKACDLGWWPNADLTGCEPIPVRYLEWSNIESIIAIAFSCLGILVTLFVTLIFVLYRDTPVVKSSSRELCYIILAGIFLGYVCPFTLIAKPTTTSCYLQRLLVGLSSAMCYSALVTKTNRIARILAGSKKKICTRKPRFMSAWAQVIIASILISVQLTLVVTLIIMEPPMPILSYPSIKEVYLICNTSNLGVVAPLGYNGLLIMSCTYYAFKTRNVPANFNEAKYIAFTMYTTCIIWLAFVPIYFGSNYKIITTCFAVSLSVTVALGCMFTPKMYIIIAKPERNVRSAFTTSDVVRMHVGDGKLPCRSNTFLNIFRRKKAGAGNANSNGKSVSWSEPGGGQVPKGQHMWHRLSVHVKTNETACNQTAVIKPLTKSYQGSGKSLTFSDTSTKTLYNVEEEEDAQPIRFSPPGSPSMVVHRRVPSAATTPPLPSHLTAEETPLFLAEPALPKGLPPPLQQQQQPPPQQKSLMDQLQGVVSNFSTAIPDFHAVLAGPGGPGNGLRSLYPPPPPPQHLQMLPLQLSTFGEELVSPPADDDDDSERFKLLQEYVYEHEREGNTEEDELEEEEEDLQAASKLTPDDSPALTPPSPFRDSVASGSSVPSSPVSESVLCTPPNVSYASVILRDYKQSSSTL

Row | Compound | NanoBRET Fold Response (ADORA1; ADORA1, 0.1μM tracer) | NanoBRET Fold Response (ADORA1; ADORA1, 1μM tracer) | NanoBRET Fold Response (CXCR2; CXCR2, 0.1μM tracer) | NanoBRET Fold Response (CXCR2; CXCR2, 1μM tracer) | NanoBRET Fold Response (CXCR5; CXCR5, 0.1μM tracer) | NanoBRET Fold Response (CXCR5; CXCR5, 1μM tracer) | NanoBRET Fold Response (GRM1; GRM1, 0.1μM tracer) | NanoBRET Fold Response (GRM1; GRM1, 1μM tracer) | NanoBRET Fold Response (PTGIR; PTGIR, 0.1μM tracer) | NanoBRET Fold Response (PTGIR; PTGIR, 1μM tracer) | further results
1 | COc1ccccc1N1CCN(CCCCN2C(=O)c3ccc(CNC(=O)CCOCCOCCOCCOCCNC(=O)CCc4ccc5n4[B-](F)(F)[N+]4=C(c6ccc[nH]6)C=CC4=C5)cc3C2=O)CC1 [NAN-190-2-NB590] | – | – | – | – | – | – | – | – | – | – | NanoBRET Fold Response (ADORA1; ADORA1, tracer 0.1μM): 1.10; NanoBRET Fold Response (ADORA1; ADORA1, tracer 1μM): 0.92; NanoBRET Fold Response (CXCR2; CXCR2, tracer 0.1μM): 1.08; NanoBRET Fold Response (CXCR2; CXCR2, tracer 1μM): 0.92; NanoBRET Fold Response (CXCR5; CXCR5, tracer 0.1μM): 1.01; NanoBRET Fold Response (CXCR5; CXCR5, tracer 1μM): 1.00; NanoBRET Fold Response (GRM1; GRM1, tracer 0.1μM): 0.35; NanoBRET Fold Response (GRM1; GRM1, tracer 1μM): 0.92; NanoBRET Fold Response (PTGIR; PTGIR, tracer 0.1μM): 0.99; NanoBRET Fold Response (PTGIR; PTGIR, tracer 1μM): 1.02
2 | CN1CCN(C2=Nc3cc(Cl)ccc3N(CC(=O)NCCOCCOCCOCCOCCNC(=O)CCc3ccc4n3[B-](F)(F)[N+]3=C(c5ccc[nH]5)C=CC3=C4)c3ccccc32)CC1 [Clozapine-c-2-NB590] | 1.00 | 0.87 | 1.03 | 0.92 | 0.98 | 0.98 | 0.99 | 1.00 | 0.96 | 1.09 | –
3 | COc1ccc2[nH]c(-c3ccc(CNC(=O)CCOCCOCCOCCOCCNC(=O)CCc4ccc5n4[B-](F)(F)[N+]4=C(c6ccc[nH]6)C=CC4=C5)cc3)c(CCNC(C)=O)c2n1 [AzomelatoninICO9-2-NB590] | – | – | – | – | – | – | – | – | – | – | NanoBRET Fold Response (ADORA1; 0.1μM tracer): 0.91; NanoBRET Fold Response (ADORA1; 1μM tracer): 0.94; NanoBRET Fold Response (CXCR2; 0.1μM tracer): 1.38; NanoBRET Fold Response (CXCR2; 1μM tracer): 1.00; NanoBRET Fold Response (CXCR5; 0.1μM tracer): 1.36; NanoBRET Fold Response (CXCR5; 1μM tracer): 0.90; NanoBRET Fold Response (GRM1; 0.1μM tracer): 0.66; NanoBRET Fold Response (GRM1; 1μM tracer): 1.33; NanoBRET Fold Response (PTGIR; 0.1μM tracer): 1.03; NanoBRET Fold Response (PTGIR; 1μM tracer): 0.98
4 | O=C(CCOCCOCCOCCOCCNC(=O)CCc1ccc2n1[B-](F)(F)[N+]1=C(c3ccc[nH]3)C=CC1=C2)NCCCN1CCN(C2=Nc3cc(Cl)ccc3Nc3ccccc32)CC1 [Clozapine-a-2-NB590] | 1.00 | 1.01 | 1.02 | 0.87 | 1.06 | 1.01 | 1.42 | 0.90 | 1.04 | 0.98 | –
